This is an account of results in patent publication US8007779B2, “Nucleic acid constructs and cells, and methods utilizing same for modifying the electrophysiological function of excitable tissues” (GeneGrafts Ltd., priority 2000, dated 2011).

Where “and” joins values, the source holds several entries; their conditions need not be identical. Identical values can stand only once. Entries after “also recorded” stand apart in the source; their conditions may differ.

Test [1] relates to cultured neuronal network. The experiment in a line: Spiking activity of cultured cortical neuronal network on multi-electrode array (MEA). The class given is cell-based, rat. The following applies: 5 μM bicuculin, 10 μM DNQX or 20 μM APV added to the culture. On the procedure:
Cortical neurons were obtained from newborn rats within 24 hours from birth, following standard harvesting procedures (Culturing nerve cells, 2nd edition, Gary Ranker and Kimberly Goslin, 1998). The cortex tissue was digested enzymatically and mechanically dissociated and the neurons were plated directly onto substrate-integrated multi-electrode array (MEA) dishes prepared as described below. The cultures were bathed in MEM which was supplemented with heat-inactivated horse serum (5%), Glutamine (0.5 mM), Glucose (20 mM), and Gentamycin (10 μg/ml), and maintained in a tissue culture incubator at 37° C., 5% CO2 and 95% during the recording phases. Half of the medium was exchanged twice a week and the experiments were performed during the third week following plating, thus allowing complete maturation of the neurons (FIGS. 1a-b).
Arrays of 60 Ti/Au/TiN electrodes, 30 μm in diameter, spaced 200 μm from each other (MultiChannelSystems (MCS), Reutlingen, Germany) were utilized in the present study. The insulation layer (silicon nitride), was pretreated with poly-L-lysine forming a good surface for network development. A commercial 60-channel amplifier (B-MEA-1060, MCS, Reutlingen, Germany) with frequency limit range of 10-3000 Hz and a gain of ×1024 was utilized for signal amplification. The amplifier was connected to MCPPlus filter amplifiers (Alpha Omega, Nazareth, Israel) for further amplification (×10 to ×20). Stimulation through the MEA was performed using a dedicated 8-channel stimulus generator (MCS, Reutlingen, Germany).
In addition, the micro-incubation environment was arranged to support long-term recordings from MEA dishes. This was achieved by streaming a filtered, heated and humidified air/CO2 (95/5%) gas mixture, and by electrically heating the MEA platform to 37° C. Data is digitized using two 5200a/526 A/D boards (Microstar Laboratories, WA, USA).
Following electrical functionality determination, the neuronal network cultures were incubated with various electrical conduction blockers.

In test [2] the test system is neonatal rat ventricular cardiomyocytes (NRVM). The experiment in a line: Synchronous activity, conduction block, conduction velocity and signal amplitude of cardiomyocyte/fibroblast co-cultures on MEA. The format is cell-based. On the procedure: (§1) Monolayer cultures of neonatal rat ventricular cardiomyocytes (NRVM) were prepared as previously described (Rubin et al, 1995), with some modifications. The cultures were maintained in a humidified incubator under a controlled environment of 5% CO2+95% air at 37° C.; fresh medium was replaced on alternating days.
(§2) Fibroblasts from the NIH 3T3 cell line were transfected with an expression cassette which included a mutant voltage gated potassium channel (Kv1.3) coding sequence (GeneBank Accession number H18261) placed under the transcription control of a constitutive promoter using standard procedures. Fibroblast cultures not transfected with the channel coding sequence were produced from the NIH 3T3 cell-line.
(§3) Once well synchronous spontaneous activity was established in the cardiomyocyte cultures, fibroblasts transfected with the Kv1.3 channel coding sequence or non-transfected fibroblasts were added to the cultures. Two different methods where used to seed the fibroblasts. In the first method, the fibroblast were suspended in trypsin for 5 minutes following which they were seeded in a diffuse pattern in the cardiomyocytic cultures (FIG. 4a). In the second method, the fibroblasts where pipetted up and down through a 5 ml pipette for 2 minutes and seeded in the cardiomyocytic cultures thus were forming clusters of fibroblasts (FIG. 4b).
(§4) Extracellular recordings from cultured cardiomyocytes were performed on a PC-based Microelectrode Data Acquisition System (Multi Channel Systems, Reutlingen, Germany), consisting of Multi-Electrode Array (MEA), pre- and filter-amplifiers, data acquisition board, and software. The MEA consists of a 50×50 mm glass substrate, in the center of which is an embedded 0.7×0.7 or 1.4×1.4 mm matrix of 60 Titanium-nitride, gold contacts 10 or 30 μm diameter electrodes insulated with silicone nitride, with inter-electrode distance of 100 or 200 μm (there are no electrodes in the corners of the matrix). Data were recorded at 10-25 KHz with 12-bit precision. During the recording sessions, the MEA (removed from the regular incubator) was constantly perfused with a gas mixture consisting of 5% CO2+95% air. Temperature was kept at 37±0.10° C.
Recorded data was filtered using cutoff frequency of 2 KHz (Fast et al, 1993). The filtered signal was then differentiated digitally to determine the Local Activation Time (LAT) at each electrode, corresponding to dF/dtmin (where F is the filtered signal) (Dolber and Spach, 1986). Color-coded activation maps were constructed by interpolating the LAT values for the sites between the electrodes, and by extrapolating the LAT values for the 4 corners of the MEA matrix. Activation maps were plotted by means of Matlab standard 2-d plotting function (pcolor) (Matlab 5.3 Mathworks Incorporated©). Conduction velocity was calculated by standard methods (Bayly et al, 1988).
Conduction block quantification is central to evaluating conduction block development in the cell cultures, and to evaluating reversibility of the conduction block following CTX application. A conduction block was determined using the following algorithm: […]
Electrical activity of the cultures was recorded on day one immediately prior to seeding of the fibroblasts and then daily until the cultures died or no spontaneous activity was detected. […]

The test system of test [3] is cardiomyocytes co-cultured with fibroblasts (NIH 3T3) transfected with voltage gated potassium channel Kv1.3. The experiment in a line: Spontaneous activity rate of cardiomyocyte cultures and fibroblast co-cultures on MEA under CTX. The class given is cell-based, rat. On the procedure: as §1, §2, §3, §4
Electrical activity of the cultures was recorded on day one immediately prior to seeding of the fibroblasts and then daily until the cultures died or no spontaneous activity was detected. During the daily measurements the cultures where subjected to increasing concentrations (0.1, 1, 10, 100 nM) of CTX.
Measurement were performed during spontaneous activity from three groups of cardiomyocyte cultures: cultures without fibroblasts, cultures with NIH 3T3 fibroblasts (seeded diffusely) and cultures with transfected NIH 3T3 fibroblasts (expressing the mutant voltage gated potassium channel coding sequence).

For test [4], the system named is neonatal rat (Sprague Dawley) ventricular myocytes. The test is described as follows: Spontaneous beating rate of neonatal rat ventricular myocyte/fibroblast co-cultures (MEA), with CTx. The format is cell-based. From the text:
Cell co-culturing—Primary monolayer cultures of neonatal rat (Sprague Dawley) ventricular myocytes were generated as previously described [Nuss H B, Marban E, Johns D C. Overexpression of a human potassium channel suppresses cardiac hyperexcitability in rabbit ventricular myocytes. J Clin Invest. 1999; 103:889-96]. Briefly, following excision, the ventricles were minced and treated with RDB (IIBR, Ness-Ziona, Israel). Following centrifugation, dispersed cells were suspended in culture medium (Ham's F10), 5% fetal calf serum, 5% horse serum, 100 U/ml penicillin, […] streptomycin (all from Biological industries, Beit Haemek, Israel), 1 mM CaCl2 and 50 mg/100 ml bromodeoxyuridine (BrdU, Sigma). The cells were then cultured on gelatin coated (0.1%) microelectrode culture plates at a density of 1.5×10^6 cells/ml.
Once a well synchronous spontaneous activity was established in the cardiomyocyte cultures, fibroblasts (naïve, or Kv1.3 expressing fibroblasts) were seeded in a diffuse manner into the cardiomyocytic cultures. Two groups were studied: The cultures were studied daily, and the electrophysiological properties, essentially the spontaneous beating rate of the culture, was assessed at baseline and following application of the specific Kv1.3 blocker, Charybdotoxin (CTx), at increasing dosages (1, 10, 100 nM). […]

The subject of test [5] is left ventricular myocardium. The experiment in a line: In vivo local ventricular effective refractory period (ERP) after cell grafting, rat model. The following applies: for local ventricular ERP at the site of cell transplantation after MTx: study group (Kv1.3 fibroblasts, n=10), mean±SEM (FIG. 19b). On the procedure: Rat model—Male Sprague-Dawley rats weighing 200-250 gr were anesthetized using A Xylasine (0.5 mg/kg) and Ketamine (0.5 mg/kg) preparation [see Example 7]. The animals were then intubated and ventilated using a Harvard small-animal mechanical respirator. The chest wall was opened using a left thoracotomy and the heart was exposed. After removal of the pericardium, a total of 6×10^6 cells (either fibroblasts without transfections in the control group or fibroblast overexpressing the KV1.3 channel in the study group) were transplanted into the anterior aspect of the left ventricular wall using a 28 g needle. In order to prevent graft rejection, all animals were treated with a daily dose of cyclosporin (10 mg/kg) and methyprednisolone (2 mg/kg). The animals underwent a detailed electrophysiological study (see below) immediately before cell grafting and 7 days post-transplantation.
In vivo electrophysiological studies—The electrophysiological study in rats included a standard ventricular pacing protocol to determine the local myocardial effective refractory period (ERP). The ERP was evaluated by applying a train of 20 stimuli at a fixed cycle-length of 200 ms (S1), followed by a single premature stimulus (S2). The S1-S2 coupling interval was gradually shortened. The ERP was determined as the shortest S1-S2 coupling interval still capable of eliciting a ventricular response. Stimuli were generated using a computer controlled STG 1004 stimulus generator with the matching MC-Stim software (both from Multi Channel Systems, Reutlingen, Germany).
The ERP was measured at the site of cell transplantation and at remote sites, both prior to cell transplantation and seven days following cell grafting. In order to dissect the role of the overexpressed channel in altering the local myocardial electrophysiological properties, the ERP was measured also at each site following application of 9 μg/kg of Margatoxin (Alomone Labs, Jerusalem, Israel), a specific Kv 1.3 channel blocker as an intraperitoneal bolus.

Test [6] concerns right ventricular free wall. The experiment in a line: In vivo local ventricular effective refractory period (ERP) after cell grafting, swine model. On the set-up: species or system pig. To be noted: for ventricular ERP following local application of MTx: swine, sites grafted with transfected fibroblasts, all CLs (FIG. 20b). On the procedure: Swine model—Three domestic pigs (20-30) kg were studied. Anesthesia was induced with 5-10 ml of intravenous sodium pentothal 2.5% solution and maintained with inhaled isoflurane (2%) in oxygen. Following a right thoracotomy, each heart was exposed and a total of 6×10^6 cells were transplanted at a total of 7 different locations in the anterior free wall of the right ventricle. Cells were delivered using a 25 g needle using an injection volume of 250 μl. The sites of cell transplantation were marked with a suture. To prevent graft rejection, the animals were treated with an immunosuppressive regimen (cyclosporine, 10 mg/kg/d and methylprednisolone, 3 mg/kg/d). 7 days following cell transplantation, a second thoracotomy and a detailed epicardial electrophysiological study were performed.
The ERP in the pigs was measured in a similar manner to that in the rats but using slower basic stimulation intervals (CLs of 350, 400 and 500 ms). The ERP was measured at the site of cell transplantation as well as in remote sites and also following local intramyocardial injection of Margatoxin at the examined sites.

Regarding `N[C@H](CCCP(=O)(O)O)C(=O)O` [APV, D-2-amino-5-phosphonovalerate], in test [1], the “spiking activity in cultured neuronal network” value (“spiking activity” for short) is “completely abolished”.

On to `O=[N+]([O-])c1cc2nc(O)c(O)nc2cc1[N+](=O)[O-]` [DNQX], for which, in test [1], the “spiking activity” value is reported as “completely abolished”.

On to `CN1CCc2cc3c(cc2[C@H]1[C@@H]1OC(=O)c2c1ccc1c2OCO1)OCO3` [bicuculin], for which the “spiking activity” value in test [1] was “completely abolished”.

Consider “Charybdotoxin (QFTNVSCTTSKECWSVCQRLHNTSRGKCMNKKCRCYS) [CTX]”, for which the “activation map after CTX” value in test [2] (co-culture with non-transfected fibroblasts, five days after seeding, CTX 10 nM (FIG. 12d)) is recorded as “no appreciable change”. Also, the “conduction block factor after Charybdotoxin” value is reported as “substantially decreased” in test [2] (co-cultures including fibroblasts transfected with Kv1.3, n=10 (FIG. 11)) and “minimal response” in test [2] (co-cultures including non-transfected fibroblasts, n=9 (FIG. 11)). Besides, the “conduction block after CTX treatment” value in test [2] (co-cultures with Kv1.3 transfected fibroblasts, CTX 10 nM (FIG. 7d)) was “reversal; also recorded: reversed”. Besides, the “uncoupling effect after CTX treatment” value in test [2] (co-cultures with Kv1.3 transfected fibroblasts, CTX 100 nM (FIGS. 6f-g)) was “reversed”. The “increase in spontaneous activity rate” value in test [3] (CTX 10 nM, cardiomyocyte cultures or cardiomyocytes co-cultured with untransfected fibroblasts) is given as “did not increase”; in test [3] (CTX 10 nM, co-cultures which included the Kv1.3 transfected fibroblasts), 20%; in test [3] (CTX 100 nM, cardiomyocyte cultures or cardiomyocytes co-cultured with untransfected fibroblasts) it was “up to 15%”; in test [3] (CTX 100 nM, co-cultures which included the Kv1.3 transfected fibroblasts) it was 55%. Further, the “beating frequency after CTx application” value in test [4] (control group (naive fibroblasts)) is “did not significantly alter”. Moreover, the “reversibility of the negative chronotropic effect by CTx” value in test [4] (study group (Kv1.3 transfected fibroblasts), CTx 100 nM (FIG. 18b)) is “full reversibility”.

As to “Margatoxin (TIINVKCTSPKQCLPPCKAQFGQSAGAKCMNGKCKCYPH)”, in test [5] (control group grafted with naive fibroblasts (n=8)), the “local ERP after administration of Mtx” value is “did not change significantly”. Moreover, in test [5] (one animal grafted with Kv1.3 fibroblasts, basic CL 200 ms (FIG. 19a)), the “ventricular ERP at the site of cell grafting after Margatoxin” value is “reversed and 100 ms”. Also, the “local ventricular ERP at the site of cell transplantation after MTx” value in test [5] amounted to 117 ± 7.70 ms; in test [5] (listed as MTx), 117 ± 8 ms. Moreover, the “local ERP after local application of MTx” value in test [6] (pig grafted with transfected cells, basic CL drive 400 ms (FIG. 20a)) is 220 ms. Besides, the “ventricular ERP following local application of MTx” value in test [6] is reported as “near baseline values”; in test [6] (listed as MTx), “not different from the control sites”.
